# How the values were obtained:
# bedstraw = assay: Test B pre/postemergence bedstraw; assay type: in vivo, Galium aparine
# Excerpt: (§1) Seeds of bedstraw (Galium aparine), blackgrass (Alopecurus myosuroides), surinam grass (Brachiaria decumbens), cocklebur (Xanthium strumarium), corn (Zea mays), crabgrass (Digitaria sanguinalis), giant foxtail (Setaria faberii), morningglory (Ipomoea hederacea), pigweed (Amaranthus retroflexus), rape (Brassica napus), soybean (Glycine max), sugar beet (Beta vulgaris), velvetleaf (Abutilon theophrasti), wheat (Triticum aestivum), wild oat (Avena fatua) and purple nutsedge (Cyperus rotundus) tubers were planted and treated preemnergence with test chemicals formulated in a non-phytotoxic solvent mixture which included a surfactant.
# (§2) At the same time, these crop and weed species were also treated with postemergence applications of test chemicals formulated in the same manner. Plants ranged in height from 2 to 18 cm (1- to 4-leaf stage) for postemergence treatments. Plant species in the flood test consisted of rice (Oryza sativa), smallflower flatsedge (Cyperus difformis), duck salad (Heteranthera limosa) and bamyardgrass (Echinochloa crus-galli) grown to the 2-leaf stage for testing. Treated plants and controls were maintained in a greenhouse for twelve to sixteen days, after which all species were compared to controls and visually evaluated. Plant response ratings, summarized in Table B, are based on a scale of 0 to 10 where 0 is no effect and 10 is complete control. A dash (−) response means no test result.
# blackgrass = assay: Test B pre/postemergence blackgrass; assay type: in vivo, Alopecurus myosuroides
# Procedure, shortened: (§3)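 Herbicidal effect was estimated by eye on a ten-point control scale after plants spent twelve to sixteen days in a greenhouse following soil or foliar treatment. Foliar sprays targeted plants at one to four leaves; all doses were formulated in a non-phytotoxic solvent with surfactant.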
# surinam grass = assay: Test B pre/postemergence surinam grass; assay type: in vivo, Brachiaria decumbens
# Excerpt: as §1, §2
# cocklebur = assay: Test B pre/postemergence cocklebur; assay type: in vivo, Xanthium strumarium
# Excerpt: as §1, §2
# corn = assay: Test B pre/postemergence corn; assay type: in vivo, Zea mays
# Excerpt: as §1, §2
# crabgrass = assay: Test B pre/postemergence crabgrass; assay type: in vivo, Digitaria sanguinalis
# Procedure, shortened: as §3
# giant foxtail = assay: Test B pre/postemergence giant foxtail; assay type: in vivo, Setaria faberii
# Excerpt: as §1, §2
# morningglory = assay: Test B pre/postemergence morningglory; assay type: in vivo, Ipomoea hederacea
# Excerpt: as §1, §2
# pigweed = assay: Test B pre/postemergence pigweed; assay type: in vivo, Amaranthus retroflexus
# Excerpt: as §1, §2
# rape = assay: Test B pre/postemergence rape; assay type: in vivo, Brassica napus
# Procedure, shortened: as §3
# soybean = assay: Test B pre/postemergence soybean; assay type: in vivo, Glycine max
# Excerpt: as §1, §2
# sugar beet = assay: Test B pre/postemergence sugar beet; assay type: in vivo, Beta vulgaris
# Excerpt: as §1, §2
# velvetleaf = assay: Test B pre/postemergence velvetleaf; assay type: in vivo, Abutilon theophrasti
# Excerpt: as §1, §2
# wheat = assay: Test B pre/postemergence wheat; assay type: in vivo, Triticum aestivum
# Procedure, shortened: as §3
# wild oat = assay: Test B pre/postemergence wild oat; assay type: in vivo, Avena fatua
# Procedure, shortened: as §3
# purple nutsedge = assay: Test B pre/postemergence purple nutsedge; assay type: in vivo, Cyperus rotundus
# Excerpt: as §1, §2
# [1] = Postemergence, Rate 125 g/ha, scale of 0 to 10 where 0 is no effect and 10 is complete control
# [2] = Preemergence, Rate 62 g/ha, scale of 0 to 10 where 0 is no effect and 10 is complete control
# [3] = Preemergence, Rate 125 g/ha, 0 is no effect, 10 is complete control
# [4] = Preemergence, Rate 250 g/ha, scale 0 to 10, 0 is no effect, 10 is complete control
# [5] = Preemergence, Rate 500 g/ha, scale 0 to 10 (0 no effect, 10 complete control)
# [6] = Rate 62 g/ha, Postemergence, scale of 0 to 10 where 0 is no effect and 10 is complete control
# [7] = Rate 250 g/ha, Postemergence, scale 0 to 10, 0 is no effect, 10 is complete control
# [8] = Rate 500 g/ha, Postemergence, scale 0 to 10
# [9] = Preemergence, Rate 125 g/ha, scale of 0 to 10 where 0 is no effect and 10 is complete control
# [10] = Preemergence, Rate 250 g/ha, scale 0 to 10 (0 no effect, 10 complete control)
# [11] = Preemergence, Rate 500 g/ha, scale of 0 to 10 where 0 is no effect and 10 is complete control
compound,measurement,setting,value
CC(C)N(C(=O)n1oc(=O)n([C@@H](C)c2ccccc2)c1=O)c1ccccc1 [Compound 168],Bedstraw plant response rating,bedstraw; [1],3
same,Bedstraw plant response rating,bedstraw; [2],0
same,Bedstraw plant response rating (0 to 10 scale),bedstraw; [3],0
same,Bedstraw plant response rating,bedstraw; [4],0
same,Bedstraw plant response rating,bedstraw; [5],0
same,Bedstraw plant response rating,bedstraw; [6],3
same,"Plant response rating, Bedstraw",bedstraw; [7],8
same,Blackgrass plant response rating,blackgrass; [1],0
same,Blackgrass plant response rating,blackgrass; [2],0
same,Blackgrass plant response rating (0 to 10 scale),blackgrass; [3],1
same,Blackgrass plant response rating,blackgrass; [4],2
same,Blackgrass plant response rating,blackgrass; [5],2
same,Blackgrass plant response rating,blackgrass; [6],0
same,"Plant response rating, Blackgrass",blackgrass; [7],2
same,Blackgrass plant response rating,blackgrass; [8],7
same,B. signalgrass plant response rating,surinam grass; [1],0
same,B. signalgrass plant response rating,surinam grass; [2],0
same,B. signalgrass plant response rating (0 to 10 scale),surinam grass; [3],2
same,B. signalgrass plant response rating,surinam grass; [4],2
same,B. signalgrass plant response rating,surinam grass; [5],5
same,B. signalgrass plant response rating,surinam grass; [6],0
same,"Plant response rating, B. signalgrass",surinam grass; [7],0
same,B. signalgrass plant response rating,"surinam grass; Rate 500 g/ha, Postemergence, scale 0 to 10, 0 no effect, 10 complete control",0
same,Cocklebur plant response rating,cocklebur; [1],0
same,Cocklebur plant response rating,cocklebur; [2],0
same,Cocklebur plant response rating (0 to 10 scale),cocklebur; [3],0
same,Cocklebur plant response rating,cocklebur; [4],0
same,Cocklebur plant response rating,cocklebur; [5],0
same,Cocklebur plant response rating,cocklebur; [6],0
same,"Plant response rating, Cocklebur",cocklebur; [7],2
same,Cocklebur plant response rating,cocklebur; [8],2
same,Corn plant response rating,corn; [1],0
same,Corn plant response rating,corn; [2],0
same,Corn plant response rating (0 to 10 scale),corn; [3],0
same,Corn plant response rating,corn; [4],0
same,Corn plant response rating,corn; [5],0
same,Corn plant response rating,corn; [6],0
same,"Plant response rating, Corn",corn; [7],0
same,Corn plant response rating,corn; [8],0
same,Crabgrass plant response rating,crabgrass; [1],1
same,Crabgrass plant response rating,crabgrass; [2],0
same,Crabgrass plant response rating (0 to 10 scale),crabgrass; [3],3
same,Crabgrass plant response rating,crabgrass; [4],7
same,Crabgrass plant response rating,crabgrass; [5],7
same,Crabgrass plant response rating,crabgrass; [6],0
same,"Plant response rating, Crabgrass",crabgrass; [7],2
same,Crabgrass plant response rating,crabgrass; [8],9
same,Giant foxtail plant response rating,giant foxtail; [1],0
same,Giant foxtail plant response rating,giant foxtail; [2],6
same,Giant foxtail plant response rating (0 to 10 scale),giant foxtail; [3],8
same,Giant foxtail plant response rating,giant foxtail; [4],10
same,Giant foxtail plant response rating,giant foxtail; [5],10
same,Giant foxtail plant response rating,giant foxtail; [6],0
same,"Plant response rating, Giant foxtail",giant foxtail; [7],1
same,Giant foxtail plant response rating,giant foxtail; [8],3
same,Morningglory plant response rating,morningglory; [1],8
same,Morningglory plant response rating,morningglory; [2],0
same,Morningglory plant response rating (0 to 10 scale),morningglory; [3],0
same,Morningglory plant response rating,morningglory; [4],0
same,Morningglory plant response rating,morningglory; [5],0
same,Morningglory plant response rating,morningglory; [6],7
same,"Plant response rating, Morningglory",morningglory; [7],10
same,Morningglory plant response rating,morningglory; [8],10
same,Redroot pigweed plant response rating,pigweed; [1],0
same,Redroot pigweed plant response rating,pigweed; [2],0
same,Redroot pigweed plant response rating (0 to 10 scale),pigweed; [3],0
same,Redroot pigweed plant response rating,pigweed; [4],0
same,Redroot pigweed plant response rating,pigweed; [5],0
same,Redroot pigweed plant response rating,pigweed; [6],0
same,"Plant response rating, Redroot pigweed",pigweed; [7],0
same,Redroot pigweed plant response rating,pigweed; [8],0
same,Rape plant response rating,rape; [1],0
same,Rape plant response rating,rape; [2],0
same,Rape plant response rating (0 to 10 scale),rape; [3],0
same,Rape plant response rating,rape; [4],0
same,Rape plant response rating,rape; [5],0
same,Rape plant response rating,rape; [6],0
same,"Plant response rating, Rape",rape; [7],0
same,Rape plant response rating,rape; [8],0
same,Soybean plant response rating,soybean; [1],1
same,Soybean plant response rating,soybean; [2],0
same,Soybean plant response rating (0 to 10 scale),soybean; [3],0
same,Soybean plant response rating,soybean; [4],0
same,Soybean plant response rating,soybean; [5],0
same,Soybean plant response rating,soybean; [6],1
same,"Plant response rating, Soybean",soybean; [7],2
same,Soybean plant response rating,soybean; [8],2
same,Sugarbeets plant response rating,sugar beet; [1],0
same,Sugarbeets plant response rating,sugar beet; [2],0
same,Sugarbeets plant response rating (0 to 10 scale),sugar beet; [3],0
same,Sugarbeets plant response rating,sugar beet; [4],4
same,Sugarbeets plant response rating,sugar beet; [5],7
same,Sugarbeets plant response rating,sugar beet; [6],0
same,"Plant response rating, Sugarbeets",sugar beet; [7],0
same,Sugarbeets plant response rating,sugar beet; [8],0
same,Velvetleaf plant response rating,velvetleaf; [2],0
same,Velvetleaf plant response rating (0 to 10 scale),velvetleaf; [3],0
same,Velvetleaf plant response rating,velvetleaf; [4],0
same,Velvetleaf plant response rating,velvetleaf; [5],6
same,"Plant response rating, Velvetleaf",velvetleaf; [7],1
same,Velvetleaf plant response rating,velvetleaf; [8],1
same,Wheat plant response rating,wheat; [2],0
same,Wheat plant response rating (0 to 10 scale),wheat; [3],0
same,Wheat plant response rating,wheat; [4],0
same,Wheat plant response rating,wheat; [5],0
same,"Plant response rating, Wheat",wheat; [7],0
same,Wheat plant response rating,wheat; [8],0
same,Wild oats plant response rating,wild oat; [2],0
same,Wild oats plant response rating (0 to 10 scale),wild oat; [3],0
same,Wild oats plant response rating,wild oat; [4],1
same,Wild oats plant response rating,wild oat; [5],3
same,"Plant response rating, Wild oats",wild oat; [7],0
same,Wild oats plant response rating,wild oat; [8],0
same,Nutsedge plant response rating,purple nutsedge; [1],0
same,Nutsedge plant response rating,purple nutsedge; [2],0
same,Nutsedge plant response rating (0 to 10 scale),purple nutsedge; [3],0
same,Nutsedge plant response rating,purple nutsedge; [4],0
same,Nutsedge plant response rating,purple nutsedge; [5],0
same,Nutsedge plant response rating,purple nutsedge; [6],0
same,"Plant response rating, Nutsedge",purple nutsedge; [7],0
same,Nutsedge plant response rating,purple nutsedge; [8],0
CCn1ncc(Cn2c(=O)on(C(=O)N(c3ccc(F)cc3)C(C)C)c2=O)c1Cl [Compound 685],"Plant response rating, Bedstraw",bedstraw; [9],0
same,"Plant response rating, Bedstraw",bedstraw; [10],0
same,"Plant response rating, Bedstraw",bedstraw; [11],0
same,Blackgrass plant response rating,blackgrass; [2],5
same,"Plant response rating, Blackgrass",blackgrass; [9],7
same,"Plant response rating, Blackgrass",blackgrass; [10],10
same,"Plant response rating, Blackgrass",blackgrass; [11],10
same,B. signalgrass plant response rating,surinam grass; [2],5
same,"Plant response rating, B. signalgrass",surinam grass; [9],7
same,"Plant response rating, B. signalgrass",surinam grass; [10],9
same,"Plant response rating, B. signalgrass",surinam grass; [11],9
same,Cocklebur plant response rating,cocklebur; [2],0
same,"Plant response rating, Cocklebur",cocklebur; [9],0
same,"Plant response rating, Cocklebur",cocklebur; [10],0
same,Corn plant response rating,corn; [2],0
same,"Plant response rating, Corn",corn; [9],0
same,"Plant response rating, Corn",corn; [10],0
same,Crabgrass plant response rating,crabgrass; [2],9
same,"Plant response rating, Crabgrass",crabgrass; [9],9
same,"Plant response rating, Crabgrass",crabgrass; [10],9
same,Giant foxtail plant response rating,giant foxtail; [2],9
same,"Plant response rating, Giant foxtail",giant foxtail; [9],9
same,Morningglory plant response rating,morningglory; [2],0
same,"Plant response rating, Morningglory",morningglory; [9],0
same,Redroot pigweed plant response rating,pigweed; [2],0
same,"Plant response rating, Redroot pigweed",pigweed; [9],4
same,Rape plant response rating,rape; [2],0
same,"Plant response rating, Rape",rape; [9],0
same,Soybean plant response rating,soybean; [2],0
same,"Plant response rating, Soybean",soybean; [9],0
same,Sugarbeets plant response rating,sugar beet; [2],0
same,"Plant response rating, Sugarbeets",sugar beet; [9],0
same,Velvetleaf plant response rating,velvetleaf; [2],0
same,"Plant response rating, Velvetleaf",velvetleaf; [9],0
same,Wheat plant response rating,wheat; [2],0
same,"Plant response rating, Wheat",wheat; [9],0
same,Wild oats plant response rating,wild oat; [2],0
same,"Plant response rating, Wild oats",wild oat; [9],3
same,"Plant response rating, Nutsedge",purple nutsedge; [9],0
